# ChEMBL document CHEMBL2074405, “Transport of monoamine transmitters by the organic cation transporter type 2, OCT2” (J Biol Chem, 1998)
# “And” between values parts separate entries of the source, which are not always exact repeats. Equal values may be shown once.
# B1: Solute carrier family 22 member 2 (Rattus norvegicus) (protein)
# chain: MSTVDDILEHIGEFHLFQKQTFFLLALLSGAFTPIYVGIVFLGFTPDHHCWSPGAAKLSQRCGWSQAEELNYTVPGLGPSDEASFLSQCMRYEVDWNQSTLDCVDPLSSLAADRNQLPLGPCEHGWVYNTPGSSIVTEFNLVCAHSWMLDLFQSVVNVGFFIGAMMIGYLADRFGRKFCLLVTILINAISGALMAISPNYAWMLVFRFLQGLVSKAGWLIGYILITEFVGLGYRRMVGICYQIAFTVGLLILAGVAYVIPNWRWLQFAVTLPNFCFLLYFWCIPESPRWLISQNKIVKAMKIIKHIAKKNGKSVPVSLQNLTPDEDAGKKLNPSFLDLVRTPQIRKHTLILMYNWFTSSVLYQGLIMHMGLAGDNIYLDFFYSALVEFPAAFIIILTIDRVGRRYPWAVSNMVAGAACLASVFIPDDLQWLKITIACLGRMGITMAYEMVCLVNAELYPTYIRNLGVLVCSSMCDIGGIITPFLVYRLTDIWMEFPLVVFAVVGLVAGALVLLLPETKGKALPETIEDAENMQRPRKKKEKRIYLQVKQADRPLS
# What was measured:
# [1] = molecular target: T1, Solute carrier family 22 member 2 (Rattus norvegicus, UniProt Q9R0W2); assay: TP_TRANSPORTER: inhibition of Dopamine uptake (Dopamine: 0.1 uM, Cocaine: 1 uM) in OCT2-expressing HEK293 cells; format: functional, cell-based; conditions: human, hek293, 1 µM
# T1 sequence (Q9R0W2 whole entry): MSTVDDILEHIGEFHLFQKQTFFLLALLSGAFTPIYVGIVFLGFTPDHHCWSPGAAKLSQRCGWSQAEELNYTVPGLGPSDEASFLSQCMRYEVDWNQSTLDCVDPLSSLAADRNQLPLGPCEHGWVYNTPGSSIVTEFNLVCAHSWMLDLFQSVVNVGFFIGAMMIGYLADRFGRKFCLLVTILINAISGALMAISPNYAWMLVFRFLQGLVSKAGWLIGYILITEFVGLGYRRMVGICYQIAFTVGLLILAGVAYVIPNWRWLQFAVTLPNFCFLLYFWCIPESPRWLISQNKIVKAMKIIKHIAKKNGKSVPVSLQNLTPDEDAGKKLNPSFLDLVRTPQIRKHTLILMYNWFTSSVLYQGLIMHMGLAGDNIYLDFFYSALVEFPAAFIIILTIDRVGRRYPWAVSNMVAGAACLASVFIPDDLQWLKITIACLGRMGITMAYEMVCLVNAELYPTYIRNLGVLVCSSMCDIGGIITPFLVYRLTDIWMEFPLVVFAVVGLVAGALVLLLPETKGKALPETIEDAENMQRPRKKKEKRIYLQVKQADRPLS
# [2] = molecular target: T1, Solute carrier family 22 member 2; assay: TP_TRANSPORTER: inhibition of Noradrenaline uptake in OCT2-expressing HEK293 cells; format: functional, cell-based
# [3] = molecular target: T1, Solute carrier family 22 member 2; assay: TP_TRANSPORTER: inhibition of Serotonin uptake in OCT2-expressing HEK293 cells; format: functional, cell-based
# [4] = molecular target: T1, Solute carrier family 22 member 2; assay: TP_TRANSPORTER: inhibition of Dopamine uptake in OCT2-expressing HEK293 cells; format: functional, cell-based
# [5] = molecular target: T1, Solute carrier family 22 member 2; assay: TP_TRANSPORTER: inhibition of Adrenaline uptake in OCT2-expressing HEK293 cells; format: functional, cell-based
# [6] = molecular target: T1, Solute carrier family 22 member 2; assay: TP_TRANSPORTER: inhibition of Dopamine uptake (Dopamine: 0.1 uM, O-Methylisoprenaline: 30 uM) in OCT2-expressing HEK293 cells; format: functional, cell-based; conditions: human, hek293, 30 µM
# [7] = substrate: NCCc1ccc(O)c(O)c1; assay: cells, lysate or membranes named
# [8] = substrate: NCCc1c[nH]c2ccc(O)cc12; assay: cells, lysate or membranes named
# Description: (§1) TP_TRANSPORTER: uptake in OCT2-expressing HEK293 cells
# [9] = substrate: NC[C@H](O)c1ccc(O)c(O)c1; assay: cells, lysate or membranes named
# Description: as §1
# [10] = substrate: CNC[C@H](O)c1ccc(O)c(O)c1; assay: cells, lysate or membranes named
molecule,measurement,setting,value
COC(=O)[C@H]1[C@@H](OC(=O)c2ccccc2)C[C@@H]2CC[C@H]1N2C [COCAINE],Activity,[1],is not an inhibitor [-]
C[C@]12C[C@H](O)[C@H]3[C@@H](CCC4=CC(=O)CC[C@@]43C)[C@@H]1CC[C@@H]2C(=O)CO [CORTICOSTERONE],Ki,[2],460 nM
same,Ki,[3],605 nM
same,Ki,[4],390 nM
same,Ki,[5],420 nM
CC(C)N1/C(=C\c2cc[n+](C(C)C)c3ccccc23)C=Cc2ccccc21 [DISPROCYNIUM24],Ki,[2],13 nM
same,Ki,[3],13 nM
same,Ki,[4],5.1 nM
same,Ki,[5],12 nM
COc1cc(C(O)CNC(C)C)ccc1O (centres undefined) [METIPRENALINE],Activity,[6],is not an inhibitor [-]
B1,Km,[7],2.1 mM
same,Km,[8],3.6 mM
same,Km,[9],11 mM and 4.4 mM
same,Km,[10],1.9 mM
